“And” between values parts separate entries of the source, which are not always exact repeats. Identical values can stand only once. Each block holds one compound with its values, some of them ahead of it.
Experiments:
Type in all cases: in vivo
[1] = Pharmacokinetics of a single oral dose of Toltrazuril in horses (blood levels); conditions: horses receiving single oral 10 mg/kg Toltrazuril
Method: A pharmacokinetic study was conducted in horses comparing blood levels of Toltrazuril, Ponazuril and Toltrazuril Sulfoxide at various times post a single dose of Toltrazuril. All horses received a single dose of 10 mg/kg, which was administered orally as a suspension. Blood samples were drawn at the time of treatment (0) and at 0.25, 0.5, 1, 2, 4, 6, 12, 24, 48 and 72 hours post treatment. […] This was an indication that Ponazuril, alone, would produce acceptable blood levels that are envisioned to pass the blood-brain barrier, a characteristic required to treat neurological diseases such as those caused by Sarcocystis neurona, Toxoplasma gondii, Neospora caninum and Neospora heugesi.

[2] = Cerebral spinal fluid drug levels / passage of blood-brain barrier after repeated doses of Toltrazuril in horses; conditions: for AVG Cerebral Spinal Fluid level (Table 5b) / AVG Cerebral Spinal Fluid level (Table 5a): CSF, average, Day 10
Method: (§1) This experiment was conducted in order to determine whether triazineones such as Toltrazuril can pass the blood-brain barrier. Normal horses were divided into three groups of three horses per group. Group 1 horses received Toltrazuril administered orally as a 5% suspension at a dose level of 2.5 mg/Kg. Group 2 horses received Toltrazuril administered orally as a 5% suspension at a dose level of 5.0 mg/Kg. Group 3 horses received Toltrazuril administered orally as a 5% suspension at a dose level of 7.5 mg/Kg. The dosing was repeated daily for 10 days. Blood samples were drawn at 48, 96 and 240 hours and the concentration of Toltrazuril, Toltrazuril sulfoxide and Ponazuril in the serum was measured. Ten days after the start of the treatment (Day 10), a sample of cerebral spinal fluid was removed from each horse and the concentrations of Toltrazuril, Toltrazuril Sulfoxide and Ponazuril were again measured in these samples. The concentrations of Toltrazuril, Toltrazuril Sulfoxide and Ponazuril in the serum and cerebral spinal fluid are reported in TABLES 5a and 5b.

[3] = Serum drug levels after repeated doses of Toltrazuril in horses; parameters: unit not given here; conditions: for Toltrazuril Level (Table 5b) / Toltrazuril Level (Table 5a): per horse; for AVG Toltrazuril Level (Table 5b) / AVG Toltrazuril Level (Table 5a): average
Method: as §1

- Levels in serum / bloodstream (in words) [1]: significant levels
SMILES: Cc1cc(-n2c(=O)[nH]c(=O)n(C)c2=O)ccc1Oc1ccc([S+]([O-])C(F)(F)F)cc1 (stereo not drawn) [Toltrazuril Sulfoxide]

- AVG Cerebral Spinal Fluid level (Table 5b) ([2]; 2.5 mg/Kg oral Toltrazuril daily for 10 days): 0.09
- AVG Cerebral Spinal Fluid level (Table 5a) ([2]; 2.5 mg/Kg oral daily for 10 days): 0.15
- AVG Cerebral Spinal Fluid level (Table 5b) ([2]; 5.0 mg/Kg oral Toltrazuril daily for 10 days): 0.16
- AVG Cerebral Spinal Fluid level (Table 5a) ([2]; 5.0 mg/Kg oral daily for 10 days): 0.19
- AVG Cerebral Spinal Fluid level (Table 5b) ([2]; 7.5 mg/Kg oral Toltrazuril daily for 10 days): 0.22
- AVG Cerebral Spinal Fluid level (Table 5a) ([2]; 7.5 mg/Kg oral daily for 10 days): 0.39
- Toltrazuril Level (Table 5b) ([3]; 2.5 mg/Kg oral Toltrazuril daily for 10 days, 240 Hrs, 2.5 mg/kg): 2.61 and 2.36 and 4.04
- Toltrazuril Level (Table 5a) ([3]; 2.5 mg/Kg oral daily for 10 days, 96 Hrs, 2.5 mg/kg): 9.85 and 9.09 and 13.1
- Toltrazuril Level (Table 5a) ([3]; 2.5 mg/Kg oral daily for 10 days, 240 Hrs, 2.5 mg/kg): 15.29 and 9.60 and 15.21
- Toltrazuril Level (Table 5b) ([3]; 5.0 mg/Kg oral Toltrazuril daily for 10 days, 48 Hrs, 5 mg/kg): 0.48 and 0.63
- Toltrazuril Level (Table 5b) ([3]; 5.0 mg/Kg oral Toltrazuril daily for 10 days, 96 Hrs, 5 mg/kg): 2.09 and 2.03 and 2.66
- Toltrazuril Level (Table 5a) ([3]; 5.0 mg/Kg oral daily for 10 days, 48 Hrs, 5 mg/kg): 7.28 and 9.18 and 9.26
- Toltrazuril Level (Table 5a) ([3]; 5.0 mg/Kg oral daily for 10 days, 96 Hrs, 5 mg/kg): 14.17 and 14.03 and 18.19
- Toltrazuril Level (Table 5a) ([3]; 5.0 mg/Kg oral daily for 10 days, 240 Hrs, 5 mg/kg): 24.92 and 16.54 and 17.59
- Toltrazuril Level (Table 5b) ([3]; 7.5 mg/Kg oral Toltrazuril daily for 10 days, 96 Hrs, 7.5 mg/kg): 2.69 and 2.89 and 3.09
- Toltrazuril Level (Table 5b) ([3]; 7.5 mg/Kg oral Toltrazuril daily for 10 days, 240 Hrs, 7.5 mg/kg): 6.31 and 6.37 and 7.06
- Toltrazuril Level (Table 5a) ([3]; 7.5 mg/Kg oral daily for 10 days, 48 Hrs, 7.5 mg/kg): 9.90 and 10.46
- Toltrazuril Level (Table 5a) ([3]; 7.5 mg/Kg oral daily for 10 days, 96 Hrs, 7.5 mg/kg): 27.74 and 19.55 and 18.47
- Toltrazuril Level (Table 5a) ([3]; 7.5 mg/Kg oral daily for 10 days, 240 Hrs, 7.5 mg/kg): 30.08 and 24.15 and 23.53
- AVG Toltrazuril Level (Table 5b) ([3]; 2.5 mg/Kg oral Toltrazuril daily for 10 days, 48 Hrs): 1.41
- AVG Toltrazuril Level (Table 5b) ([3]; 2.5 mg/Kg oral Toltrazuril daily for 10 days, 96 Hrs): 1.76
- AVG Toltrazuril Level (Table 5b) ([3]; 2.5 mg/Kg oral Toltrazuril daily for 10 days, 240 Hrs): 3.00
- AVG Toltrazuril Level (Table 5a) ([3]; 2.5 mg/Kg oral daily for 10 days, 48 Hrs): 6.70
- AVG Toltrazuril Level (Table 5a) ([3]; 2.5 mg/Kg oral daily for 10 days, 96 Hrs): 10.68
- AVG Toltrazuril Level (Table 5a) ([3]; 2.5 mg/Kg oral daily for 10 days, 240 Hrs): 13.37
- AVG Toltrazuril Level (Table 5b) ([3]; 5.0 mg/Kg oral Toltrazuril daily for 10 days, 48 Hrs): 0.53
- AVG Toltrazuril Level (Table 5b) ([3]; 5.0 mg/Kg oral Toltrazuril daily for 10 days, 96 Hrs): 2.26
- AVG Toltrazuril Level (Table 5b) ([3]; 5.0 mg/Kg oral Toltrazuril daily for 10 days, 240 Hrs): 5.02
- AVG Toltrazuril Level (Table 5a) ([3]; 5.0 mg/Kg oral daily for 10 days, 48 Hrs): 8.57
- AVG Toltrazuril Level (Table 5a) ([3]; 5.0 mg/Kg oral daily for 10 days, 96 Hrs): 15.46
- AVG Toltrazuril Level (Table 5a) ([3]; 5.0 mg/Kg oral daily for 10 days, 240 Hrs): 19.68
- AVG Toltrazuril Level (Table 5b) ([3]; 7.5 mg/Kg oral Toltrazuril daily for 10 days, 48 Hrs): 2.55
- AVG Toltrazuril Level (Table 5b) ([3]; 7.5 mg/Kg oral Toltrazuril daily for 10 days, 96 Hrs): 2.89
- AVG Toltrazuril Level (Table 5b) ([3]; 7.5 mg/Kg oral Toltrazuril daily for 10 days, 240 Hrs): 6.58
- AVG Toltrazuril Level (Table 5a) ([3]; 7.5 mg/Kg oral daily for 10 days, 48 Hrs): 10.18
- AVG Toltrazuril Level (Table 5a) ([3]; 7.5 mg/Kg oral daily for 10 days, 96 Hrs): 21.92
- AVG Toltrazuril Level (Table 5a) ([3]; 7.5 mg/Kg oral daily for 10 days, 240 Hrs): 25.95
SMILES: Cc1cc(-n2c(=O)[nH]c(=O)n(C)c2=O)ccc1Oc1ccc(SC(F)(F)F)cc1 [Toltrazuril]
- Crossing of the blood-brain barrier ([2]; horses, after oral Toltrazuril daily for 10 days): effectively cross the blood-brain barrier

— US6194408A, “Triazineone compounds for treating diseases due to Sarcocystis, Neospora and Toxoplasma” (Bayer Corporation, priority 1998, dated 2001)
